Activity calls are given as the source filed them. How the calls were made is not given here.
What was measured:
hERG (Kv11.1, KCNH2) [1] = target: T1, hERG (Kv11.1, KCNH2) (Homo sapiens, UniProt Q12809); test: in vitro
Description: MMV: Malaria Box compounds were tested for inhibition of the human ether a go-go related gene (hERG), Kv11.1 channel, using IonWorks 384-well patch clamp electrophysiology at 1.1uM (3 independent assay plates up to 12 cells per concentration).

hERG (Kv11.1, KCNH2) [2] = target: T1, hERG (Kv11.1, KCNH2); test: in vitro; remark: listed apart in the source
Description: MMV: Malaria Box compounds were tested for inhibition of the human ether a go-go related gene (hERG), Kv11.1 channel, using IonWorks 384-well patch clamp electrophysiology at 11.1uM (3 independent assay plates up to 12 cells per concentration).

T1 sequence (Q12809 whole entry): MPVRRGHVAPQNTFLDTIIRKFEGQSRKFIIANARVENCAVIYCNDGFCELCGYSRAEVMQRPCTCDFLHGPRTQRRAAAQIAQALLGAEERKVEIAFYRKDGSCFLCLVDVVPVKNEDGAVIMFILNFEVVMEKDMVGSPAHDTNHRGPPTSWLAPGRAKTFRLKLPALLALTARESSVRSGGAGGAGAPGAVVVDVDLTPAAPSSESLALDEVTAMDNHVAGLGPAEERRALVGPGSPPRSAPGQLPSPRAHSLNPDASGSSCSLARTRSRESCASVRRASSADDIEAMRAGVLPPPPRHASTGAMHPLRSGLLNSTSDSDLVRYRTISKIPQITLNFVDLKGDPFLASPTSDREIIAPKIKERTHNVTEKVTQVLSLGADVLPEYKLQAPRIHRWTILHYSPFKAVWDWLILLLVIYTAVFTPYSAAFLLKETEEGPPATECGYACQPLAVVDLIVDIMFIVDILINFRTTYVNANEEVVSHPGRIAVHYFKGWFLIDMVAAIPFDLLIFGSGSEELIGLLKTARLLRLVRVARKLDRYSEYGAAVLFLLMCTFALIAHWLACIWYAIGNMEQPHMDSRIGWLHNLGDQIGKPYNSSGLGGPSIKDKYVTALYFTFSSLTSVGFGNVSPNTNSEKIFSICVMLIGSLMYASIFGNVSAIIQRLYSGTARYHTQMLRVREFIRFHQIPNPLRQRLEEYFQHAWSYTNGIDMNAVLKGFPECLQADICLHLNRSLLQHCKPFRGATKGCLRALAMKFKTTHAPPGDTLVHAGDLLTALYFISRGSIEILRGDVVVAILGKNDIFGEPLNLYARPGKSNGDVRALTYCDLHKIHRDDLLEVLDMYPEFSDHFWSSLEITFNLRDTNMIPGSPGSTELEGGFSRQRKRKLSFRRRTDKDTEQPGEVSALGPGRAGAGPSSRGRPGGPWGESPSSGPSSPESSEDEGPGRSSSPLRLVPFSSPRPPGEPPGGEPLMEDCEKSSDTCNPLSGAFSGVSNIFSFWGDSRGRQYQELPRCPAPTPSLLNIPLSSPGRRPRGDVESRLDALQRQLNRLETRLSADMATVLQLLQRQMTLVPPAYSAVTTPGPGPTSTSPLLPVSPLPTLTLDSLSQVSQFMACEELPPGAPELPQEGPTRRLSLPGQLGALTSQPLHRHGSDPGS

Row | Compound | inhibition at 1.1 µM (hERG (Kv11.1, KCNH2) [1]) [%] | inhibition at 11.1 µM (hERG (Kv11.1, KCNH2) [2])
1 | CCCCc1c(C)nc2c(OC)cccc2c1O | -9 | 4% (inactive)
2 | Cc1ccc(-c2cc(C(=O)Nc3ccc(S(=O)(=O)N4CCCCC4)cc3)[nH]n2)c(O)c1 | -1 | 8% (inactive)
3 | CCc1ccc(CNCC(O)c2ccccc2)cc1 (stereo unspecified) | 32 | 67% (active)
4 | CCC1(C)CC(CCNCc2ccccc2O)(c2ccc(C)cc2)CCO1 (stereo unspecified) | 2 | 73% (active)
5 | COc1ccc(CCN2CCC(CN(C)Cc3cnn(-c4ccccc4)c3)CC2)cc1 | 41 | 99% (active)
6 | CC(C)(C)CC(C)(C)NCC(O)COc1ccc(Cl)cc1Cl (stereo unspecified) | 8 | 81% (active)
7 | CCC(C)NCC(O)(c1ccc(Cl)cc1)c1ccc(Cl)cc1 (stereo unspecified) | 24 | 89% (active)
8 | O=C(CCc1ccccc1)c1ccccc1OCC(O)CN1CCCCC1 (stereo unspecified) | 1 | 17% (inactive)
9 | OCCNc1nc(Nc2ccc(Cl)c(Cl)c2)nc2ccccc12 | 4 | 30%
10 | CC1CC(C)CN(C(=O)c2ccc(Cl)cc2Cl)C1 (stereo unspecified) | -3 | 5% (inactive)
11 | O=C(Nc1ccc(C23CC4CC(CC(c5ccccc5)(C4)C2)C3)cc1)c1cccs1 | 4 | 3% (inactive)
12 | Cc1sc2ncnc(Sc3nc4ccccc4[nH]3)c2c1C | 8 | 16% (inactive)
13 | CCOC(=O)c1cn(CC)c2cc(N3CCCCC3)c(F)cc2c1=O | -4 | 25%
14 | CC(Oc1ccc(NC(=O)c2cccs2)cc1)C(=O)c1ccc(Cl)cc1 (stereo unspecified) | -4 | 55% (active)
15 | COc1cccc(O)c1CN1CCC2(CCCN(Cc3ccc(F)cc3)C2)C1 (stereo unspecified) | 0 | 86% (active)
16 | CCOc1c(Cl)cc(CNC(C)C(O)c2ccccc2)cc1OC (stereo unspecified) | -4 | 39%
17 | O=C(Nc1ccc(-c2nc3cc(NC(=O)c4ccc(Cl)cc4)ccc3[nH]2)cc1)c1ccc(Cl)cc1 | -9 | 28%
18 | CC(=O)c1sc(NC(=O)Nc2ccc(C)cc2C)nc1C | 7 | 38%
19 | COc1cccc(NC(=O)[C@H](C(C)C)n2c(=O)[nH]c3ccccc3c2=O)c1 | 2 | 17% (inactive)
20 | CCOc1ccc(-c2nonc2NC(=O)c2cccc(C)c2)cc1OCC | -1 | 0% (inactive)
21 | O=C(CCl)NCCOc1ccc(Cl)cc1Cl | 1 | 62% (active)
22 | CC(=O)Nc1nnc(SCc2c(C)cc(C(C)(C)C)cc2C)s1 | 0 | 6% (inactive)
23 | CCOc1ccccc1CNC(=O)C1c2ccccc2C(=O)N(CC(C)C)C1c1cccs1 (stereo unspecified) | 12 | 84% (active)
24 | Cc1cc(Nc2ccc(Cl)cc2)n2nc(C(F)(F)F)nc2n1 | 19 | 59% (active)
25 | COc1cc(C(=O)Nc2nc3c(cc4c5c(cccc53)CC4)s2)cc(OC)c1OC | 10 | 23% (inactive)
26 | Cc1sc(NC(=O)c2ccccc2)c(C(c2cccs2)N2CCN(c3ccccc3)CC2)c1C (stereo unspecified) | 9 | 9% (inactive)
27 | Clc1cc(Br)ccc1-c1ccc(CNCC2CCNCC2)o1 | 16 | 83% (active)

Row | Compound | inhibition at 1.1 µM (hERG (Kv11.1, KCNH2) [1]) [%] | inhibition at 11.1 µM (hERG (Kv11.1, KCNH2) [2])
28 | CCOc1cc2c(cc1OCC)C(c1cc(Cl)ccc1O)NCC2 (stereo unspecified) | 1 | 20% (inactive)
29 | CCOC(=O)c1cn(CC)c2cc(N(C)CCc3ccc(OC)c(OC)c3)c(F)cc2c1=O | 3 | 34%
30 | COCCn1c(C)nc2ccccc2c1=O | 3 | 1% (inactive)
31 | COc1ccc(-c2nonc2NC(=O)c2cccc(C)c2)cc1OC | 5 | -3% (inactive)
32 | COc1ccc(NC(=O)C2c3ccccc3C(=O)N(CC(C)C)C2c2cccs2)cc1 (stereo unspecified) | 7 | 18% (inactive)
33 | Cc1cc(Nc2ccc(OCc3ccccc3)cc2)nc2cc(O)ccc12 | -2 | 108% (active)
34 | COc1ccccc1NC1=C(N2CCCCC2)C(=O)c2ccccc2C1=O | 4 | 16% (inactive)
35 | CCOc1cccc(C(=O)Nc2ccc(-c3nc4ccccc4[nH]3)cc2)c1 | 0 | -7% (inactive)
36 | Oc1c(C(Nc2ccccn2)c2cccc(Oc3ccccc3)c2)ccc2cccnc12 (stereo unspecified) | 20 | 97% (active)
37 | COc1cc(OC)cc(N2C(=O)N(Cc3ccc(C(C)(C)C)cc3)c3ccccc3S2(=O)=O)c1 | 10 | 16% (inactive)
38 | COc1ccc(-c2cn3c(C(=O)Nc4ccccc4Cl)c(-c4ccccc4)c4c3n2CCCC4)cc1 | 17 | 56% (active)
39 | O=C(Nc1ccc(Cl)c(Cl)c1)Nc1ccc(Cl)c(Cl)c1 | 15 | 103% (active)
40 | Cc1ccc(S(=O)(=O)c2c(COC(=O)c3cccc(C)c3)c(-c3ccccc3)nn2C)cc1 | 4 | 12% (inactive)
41 | CCOC(=O)c1c[nH]c2c(CC)cccc2c1=O | 10 | 5% (inactive)
42 | FC(F)(F)c1ccc(Nc2nnnc3ccccc23)cc1 | -4 | -2% (inactive)
43 | CC1CCN(Cc2c(O)ccc3cc(-c4nc5ccccc5s4)c(=O)oc23)CC1 | -3 | 10% (inactive)
44 | Cc1cccc(-n2ncc3c(O)nc(-n4nc(C)cc4NC(=O)c4cc5ccccc5o4)nc32)c1 | -3 | -8% (inactive)
45 | N#Cc1nc(Cc2cccc3ccccc23)oc1N1CCN(C(c2ccccc2)c2ccccc2)CC1 | 15 | 13% (inactive)
46 | COc1ccc(C(=O)NC(c2ccccc2Cl)c2cc(Cl)c3cccnc3c2O)cc1 (stereo unspecified) | 9 | 7% (inactive)
47 | COc1ccc(CCn2c(=N)c(C(=O)NCc3cccnc3)cc3c(=O)n4cccc(C)c4nc32)cc1 | 19 | 14% (inactive)
48 | Oc1ccc(Br)cc1CN1CCN(Cc2cccc(F)c2)CC1 | -1 | 18% (inactive)
49 | CN1C=C(c2ccc3ccccc3n2)C(c2c[nH]c3ccccc23)c2ccccc21 (stereo unspecified) | 8 | 89% (active)
50 | COc1ccc(-c2cc3c(nn2)-c2ccccc2C3=O)cc1 | -9 | -7% (inactive)
51 | Oc1ccc(Cl)cc1CNc1nc2ccccc2[nH]1 | 14 | 52% (active)
52 | COc1ccc(Br)cc1C1Nc2ccc3ccccc3c2C2=C1C(=O)CC(c1ccccc1)C2 (stereo unspecified) | -2 | 5% (inactive)
53 | O=C(Nc1ccc(-c2nc3cc4ccccc4cc3[nH]2)cc1)c1cccc(Br)c1 | -1 | -2% (inactive)

— ChEMBL document CHEMBL3301458, “MMV Malaria Box hERG screening”
